Test results reported in ChEMBL document CHEMBL2321679, “Immunomodulatory activity of an anti-HSV-1 synthetic stigmastane analog” (Bioorg Med Chem, 2013).
Activity calls are given as the source filed them. The calls are words filed in the database; no cut-off is given here.

Assays:
J774.A1 [1] = experiment: Immunomodulatory activity in LPS-stimulated mouse J744A.1 cells assessed as increase of Il23a gene expression at 40 uM after 6 hrs by RT-PCR analysis relative to control; format: functional
J774.A1 [2] = experiment: Immunomodulatory activity in LPS-stimulated mouse J744A.1 cells assessed as increase of CXCL10 gene expression at 40 uM after 6 hrs by RT-PCR analysis relative to control; format: functional
J774.A1 [3] = experiment: Immunomodulatory activity in LPS-stimulated mouse J744A.1 cells assessed as increase of Csf1 gene expression at 40 uM after 6 hrs by RT-PCR analysis relative to control; format: functional
J774.A1 [4] = experiment: Immunomodulatory activity in LPS-stimulated mouse J744A.1 cells assessed as increase of Atf3 gene expression at 40 uM after 6 hrs by RT-PCR analysis relative to control; format: functional
[5] = biological target: Transcription factor p65 (Homo sapiens) (UniProt Q04206); experiment: Inhibition of NF-kappaB p65-mediated IL-8 release in HSV1 KOS infected human HCLE cells at 40 uM after 24 hrs by ELISA; format: cell-based
Transcription factor p65 (Homo sapiens), sequence (Q04206 whole entry): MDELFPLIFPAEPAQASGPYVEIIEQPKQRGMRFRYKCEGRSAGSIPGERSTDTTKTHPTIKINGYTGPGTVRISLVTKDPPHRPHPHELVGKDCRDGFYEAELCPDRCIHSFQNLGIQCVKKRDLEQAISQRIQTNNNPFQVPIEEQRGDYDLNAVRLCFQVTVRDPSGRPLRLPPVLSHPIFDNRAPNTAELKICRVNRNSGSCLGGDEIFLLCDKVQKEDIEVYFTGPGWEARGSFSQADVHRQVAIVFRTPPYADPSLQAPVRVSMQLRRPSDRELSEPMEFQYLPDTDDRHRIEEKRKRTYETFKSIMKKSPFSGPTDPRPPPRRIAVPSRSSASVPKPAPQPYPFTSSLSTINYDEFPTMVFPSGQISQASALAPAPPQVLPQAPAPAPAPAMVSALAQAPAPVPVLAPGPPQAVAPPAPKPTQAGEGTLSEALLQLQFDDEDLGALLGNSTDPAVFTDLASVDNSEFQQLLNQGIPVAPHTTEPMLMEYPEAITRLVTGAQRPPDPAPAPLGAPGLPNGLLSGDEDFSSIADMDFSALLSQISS

[6] = biological target: Transcription factor p65 (Homo sapiens) (UniProt Q04206); experiment: Effect on NF-kappaB p65-mediated TNFalpha release in human IOBA-NHC cells at 40 uM after 24 hrs by ELISA; format: cell-based
J774.A1 [7] = experiment: Immunomodulatory activity in LPS-stimulated mouse J744A.1 cells assessed as decrease of Dusp2 gene expression at 40 uM after 6 hrs by RT-PCR analysis relative to control; format: functional
[8] = biological target: Transcription factor p65 (Homo sapiens) (UniProt Q04206); experiment: Inhibition of NF-kappaB p65 activation in HSV1 KOS infected human IOBA-NHC cells assessed as reduction of NF-kappaB p65 translocation at 40 uM after 24 hrs by indirect immunofluorescence assay; format: cell-based
[9] = Immunomodulatory activity in HSV1 KOS infected human HCLE cells assessed as increase of IL-1RL1 gene expression at 40 uM after 6 hrs by RT-PCR analysis relative to control; format: functional
[10] = biological target: Transcription factor p65 (Homo sapiens) (UniProt Q04206); experiment: Inhibition of NF-kappaB p65-mediated TNFalpha release in HSV1 KOS infected human IOBA-NHC cells at 40 uM after 24 hrs by ELISA; format: cell-based
J774.A1 [11] = experiment: Immunomodulatory activity in LPS-stimulated mouse J744A.1 cells assessed as increase of CXCL11 gene expression at 40 uM after 6 hrs by RT-PCR analysis relative to control; format: functional
J774.A1 [12] = experiment: Immunomodulatory activity in LPS-stimulated mouse J744A.1 cells assessed as decrease of Il1b gene expression at 40 uM after 6 hrs by RT-PCR analysis relative to control; format: functional
J774.A1 [13] = experiment: Inhibition of LPS-induced TNFalpha production in mouse J744A.1 cells after 24 hrs by ELISA; format: functional, cell-based
J774.A1 [14] = experiment: Immunomodulatory activity in LPS-stimulated mouse J744A.1 cells assessed as increase of Socs2 gene expression at 40 uM after 6 hrs by RT-PCR analysis relative to control; format: functional
[15] = biological target: Transcription factor p65 (Homo sapiens) (UniProt Q04206); experiment: Effect on NF-kappaB p65-mediated IL-6 release in human IOBA-NHC cells at 40 uM after 24 hrs by ELISA; format: cell-based
J774.A1 [16] = experiment: Immunomodulatory activity in LPS-stimulated mouse J744A.1 cells assessed as increase of Ifi47 gene expression at 40 uM after 6 hrs by RT-PCR analysis relative to control; format: functional
J774.A1 [17] = experiment: Inhibition of LPS-induced IL-6 production in mouse J744A.1 cells after 24 hrs by ELISA; format: functional, cell-based
[18] = Immunomodulatory activity in HSV1 KOS infected human HCLE cells assessed as increase of CSF2 (GM-CSF) gene expression at 40 uM after 6 hrs by RT-PCR analysis relative to control; format: functional
[19] = biological target: Transcription factor p65 (Homo sapiens) (UniProt Q04206); experiment: Inhibition of NF-kappaB p65-mediated IL-6 release in HSV1 KOS infected human IOBA-NHC cells at 40 uM after 24 hrs by ELISA; format: cell-based
J774.A1 [20] = experiment: Immunomodulatory activity in LPS-stimulated mouse J744A.1 cells assessed as increase of TLR4 gene expression at 40 uM after 6 hrs by RT-PCR analysis relative to control; format: functional
[21] = Immunomodulatory activity in HSV1 KOS infected human HCLE cells assessed as increase of CXCL2 gene expression at 40 uM after 6 hrs by RT-PCR analysis relative to control; format: functional
J774.A1 [22] = experiment: Inhibition of LPS-induced […] production in mouse J744A.1 cells at 40 uM after 24 hrs by ELISA; format: functional; settings: J774.A1, 24 h
J774.A1 [23] = experiment: Immunomodulatory activity in LPS-stimulated mouse J744A.1 cells assessed as increase of Il12b gene expression at 40 uM after 6 hrs by RT-PCR analysis relative to control; format: functional
[24] = biological target: Transcription factor p65 (Homo sapiens) (UniProt Q04206); experiment: Inhibition of NF-kappaB p65 activation in HSV1 KOS infected human HCLE cells assessed as reduction of NF-kappaB p65 translocation at 40 uM after 24 hrs by indirect immunofluorescence assay; format: cell-based
[25] = biological target: Transcription factor p65 (Homo sapiens) (UniProt Q04206); experiment: Inhibition of NF-kappaB p65-mediated IL-8 release in HSV1 KOS infected human IOBA-NHC cells at 40 uM after 24 hrs by ELISA; format: cell-based
J774.A1 [26] = experiment: Immunomodulatory activity in LPS-stimulated mouse J744A.1 cells assessed as increase of IL-6 gene expression at 40 uM after 6 hrs by RT-PCR analysis relative to control; format: functional
[27] = Immunomodulatory activity in HSV1 KOS infected human HCLE cells assessed as increase of IL-1alpha gene expression at 40 uM after 6 hrs by RT-PCR analysis relative to control; format: functional
[28] = Immunomodulatory activity in HSV1 KOS infected human HCLE cells assessed as increase of IL-8 gene expression at 40 uM after 6 hrs by RT-PCR analysis relative to control; format: functional
[29] = biological target: Transcription factor p65 (Homo sapiens) (UniProt Q04206); experiment: Increase of NF-kappaB p65-mediated IL-8 release in human IOBA-NHC cells at 40 uM after 24 hrs by ELISA; format: cell-based
[30] = biological target: Transcription factor p65 (Homo sapiens) (UniProt Q04206); experiment: Effect on NF-kappaB p65-mediated TNFalpha release in human HCLE cells at 40 uM after 24 hrs by ELISA; format: cell-based
[31] = biological target: Transcription factor p65 (Homo sapiens) (UniProt Q04206); experiment: Increase of NF-kappaB p65-mediated IL-8 release in human HCLE cells at 40 uM after 24 hrs by ELISA; format: cell-based
[32] = biological target: Transcription factor p65 (Mus musculus) (UniProt Q04207); experiment: Effect on NF-kappaB p65 activation in LPS-stimulated mouse J774A.1 cells assessed as NF-kappaB p65 translocation at 40 uM after 24 hrs by indirect immunofluorescence assay
Transcription factor p65 (Mus musculus), sequence (Q04207 whole entry): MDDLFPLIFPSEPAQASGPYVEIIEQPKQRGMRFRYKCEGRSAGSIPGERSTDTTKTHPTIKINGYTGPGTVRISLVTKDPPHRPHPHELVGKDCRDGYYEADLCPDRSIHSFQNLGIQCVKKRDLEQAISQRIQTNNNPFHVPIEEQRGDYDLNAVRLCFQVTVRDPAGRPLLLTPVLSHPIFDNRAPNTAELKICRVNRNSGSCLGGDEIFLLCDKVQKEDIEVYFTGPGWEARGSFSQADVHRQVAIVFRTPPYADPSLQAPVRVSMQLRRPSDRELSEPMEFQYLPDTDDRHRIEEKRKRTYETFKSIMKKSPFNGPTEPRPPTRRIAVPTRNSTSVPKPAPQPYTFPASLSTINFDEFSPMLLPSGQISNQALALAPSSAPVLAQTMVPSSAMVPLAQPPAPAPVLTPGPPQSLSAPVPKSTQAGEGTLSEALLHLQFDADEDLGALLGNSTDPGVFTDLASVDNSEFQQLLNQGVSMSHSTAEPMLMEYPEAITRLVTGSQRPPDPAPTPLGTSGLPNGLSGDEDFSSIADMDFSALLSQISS

[33] = biological target: Transcription factor p65 (Homo sapiens) (UniProt Q04206); experiment: Effect on NF-kappaB p65-mediated IL-6 release in human HCLE cells at 40 uM after 24 hrs by ELISA; format: cell-based
J774.A1 [34] = experiment: Immunomodulatory activity in LPS-stimulated mouse J744A.1 cells assessed as increase of IL-10 gene expression at 40 uM after 6 hrs by RT-PCR analysis relative to control; format: functional
J774.A1 [35] = experiment: Immunomodulatory activity in LPS-stimulated mouse J744A.1 cells assessed as increase of Slpi gene expression at 40 uM after 6 hrs by RT-PCR analysis relative to control; format: functional

CC[C@@H](C(C)C)[C@H](O)[C@@H](O)[C@@H](C)[C@H]1CC[C@H]2[C@@H]3CCC4=CC(=O)CC[C@]4(C)[C@H]3CC[C@]12C
fold change (FC) (J774.A1 [1]): 3.19
fold change (FC) (J774.A1 [2]): 11.41
fold change (FC) (J774.A1 [3]): 4.42
fold change (FC) (J774.A1 [4]): 4.41
inhibition [5]: Active
Activity [6]: inactive
fold change (FC) (J774.A1 [7]): 3.86
inhibition [8]: 22.2%
fold change (FC) [9]: 5.2
inhibition [10]: inactive
fold change (FC) (J774.A1 [11]): 6.01
fold change (FC) (J774.A1 [12]): 2.58
inhibition (J774.A1 [13]): Dose-dependent effect
IC50 (J774.A1 [13]; J774.A1, 24 h): 7 µM
fold change (FC) (J774.A1 [14]): 2.29
Activity [15]: inactive
fold change (FC) (J774.A1 [16]): 2.49
inhibition (J774.A1 [17]): Dose-dependent effect
IC50 (J774.A1 [17]; J774.A1, 24 h): > 40 µM
fold change (FC) [18]: 2.2
inhibition [19]: inactive
fold change (FC) (J774.A1 [20]): 1.95
fold change (FC) [21]: 2.9
inhibition at 40 µM (J774.A1 [22]): 77.5%
fold change (FC) (J774.A1 [23]): 4.19
inhibition [24]: 5.7%
inhibition [25]: Active
fold change (FC) (J774.A1 [26]): 1.97
fold change (FC) [27]: 2.9
fold change (FC) [28]: 4.4
Activity [29]: Active
Activity [30]: inactive
Activity [31]: Active
Activity [32]: 87.9%
Activity [33]: inactive
fold change (FC) (J774.A1 [34]): 1.27
fold change (FC) (J774.A1 [35]): 1.53

C[C@@H]1C[C@H]2[C@@H]3CCC4=CC(=O)C=C[C@]4(C)[C@@]3(F)[C@@H](O)C[C@]2(C)[C@@]1(O)C(=O)CO
inhibition [5]: Active
inhibition [8]: inactive
inhibition [10]: Active
inhibition [19]: Active
inhibition [24]: inactive
inhibition [25]: Active
Activity [32]: 100%
